Measured values: patent US7772241B2, “Variolin derivatives and their use as antitumor agents” (Pharma Mar S.A., priority 2001, dated 2010)

Assays:
[1] = test system: LoVo-Dox; test: Inhibition of cells growth by colorimetric (SRB) assay, LoVo-Dox; conditions: for GI50 / CC50: Homo sapiens, 48 h; for GI50: read-out: GI50 LOVO-DOX, SRB assay, 48 hours exposure; for CC50: read-out: LC50 LOVO-DOX, SRB assay, 48 hours exposure; for TGI LOVO-DOX: SRB assay, 48 hours exposure
In short: (§1)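 Human tumour cells in RPMI 1640 with 10% FBS were seeded at 5×10^3 cells/well, allowed to attach for 18 h, then exposed to samples at 10 to 10^−8 μg/ml for 48 h. Growth was measured by SRB staining after TCA fixation, with absorbance read at 490 nm in triplicate wells.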

[2] = test system: SK-MEL-28; test: Inhibition of cells growth by colorimetric (SRB) assay, SK-MEL-28; conditions: for GI50 / CC50: Homo sapiens, SK-MEL-28, 48 h; for GI50: read-out: GI50 MEL-28, SRB assay, 48 hours exposure; for CC50: read-out: LC50 MEL-28, SRB assay, 48 hours exposure; for TGI MEL-28: SRB assay, 48 hours exposure
In short: as §1

[3] = test system: HT-29; test: Inhibition of cells growth by colorimetric (SRB) assay, HT-29; conditions: for GI50 / CC50: Homo sapiens, HT-29, 48 h; for GI50: read-out: GI50 HT-29, SRB assay, 48 hours exposure; for CC50: read-out: LC50 HT-29, SRB assay, 48 hours exposure; for TGI HT-29: SRB assay, 48 hours exposure
In short: as §1

[4] = test system: A-549; test: Inhibition of cells growth by colorimetric (SRB) assay, A-549; conditions: for GI50 / CC50: Homo sapiens, A549, 48 h; for GI50: read-out: GI50 A-549, SRB assay, 48 hours exposure; for CC50: read-out: LC50 A-549, SRB assay, 48 hours exposure; for TGI A-549: SRB assay, 48 hours exposure
In short: as §1

[5] = test system: K-562; test: Inhibition of cells growth by colorimetric (SRB) assay, K-562; conditions: for GI50 / CC50: Homo sapiens, K562, 48 h; for GI50: read-out: GI50 K-562, SRB assay, 48 hours exposure; for CC50: read-out: LC50 K-562, SRB assay, 48 hours exposure; for TGI K-562: SRB assay, 48 hours exposure
In short: as §1

[6] = test system: SK-OV-3; test: Inhibition of cells growth by colorimetric (SRB) assay, SK-OV-3; conditions: for GI50 / CC50: Homo sapiens, SK-OV-3, 48 h; for GI50: read-out: GI50 SKOV-3, SRB assay, 48 hours exposure; for CC50: read-out: LC50 SKOV-3, SRB assay, 48 hours exposure; for TGI SKOV-3: SRB assay, 48 hours exposure
In short: as §1

[7] = test system: LoVo; test: Inhibition of cells growth by colorimetric (SRB) assay, LoVo; conditions: for GI50 / CC50: Homo sapiens, LoVo, 48 h; for GI50: read-out: GI50 LOVO, SRB assay, 48 hours exposure; for CC50: read-out: LC50 LOVO, SRB assay, 48 hours exposure; for TGI LOVO: SRB assay, 48 hours exposure
In short: as §1

[8] = test system: SK-BR-3; test: Inhibition of cells growth by colorimetric (SRB) assay, SK-BR-3; conditions: for GI50 / CC50: Homo sapiens, SK-BR-3, 48 h; for GI50: read-out: GI50 SK-BR-3, SRB assay, 48 hours exposure; for CC50: read-out: LC50 SK-BR-3, SRB assay, 48 hours exposure; for TGI SK-BR-3: SRB assay, 48 hours exposure
From the text: The finality of these assays is to interrupt the growth of a “in vitro” tumor cell culture by means a continued exhibition of the cells to the sample to be testing.
This form of the assay employs 96 well cell culture microplates of 9 mm diameter (Faircloth, 1988; Mosmann, 1983). Most of the cell lines are obtained from American Type Culture Collection (ATCC) derived from different human cancer types.
Cells are maintained in RPMI 1640 10% FBS, supplemented with 0.1 g/l penicillin and 0.1 g/l streptomycin sulphate and then incubated at 37° C., 5% CO2 and 98% humidity. For the experiments, cells were harvested from subconfluent cultures using trypsin and resuspended in fresh medium before plating.
Cells are seeded in 96 well microtiter plates, at 5×10^3 cells per well in aliquots of 195 μl medium, and they are allowed to attach to the plate surface by growing in drug free medium for 18 hours. Afterward, samples are added in aliquots of 5 μl in a ranging from 10 to 10^−8 μg/ml, dissolved in DMSO/EtOH/PBS (0.5:0.5:99). After 48 hours exposure, the antitumor effect are measured by the SRB methodology: cells are fixed by adding 50 μl of cold 50% (wt/vol) trichloroacetic acid (TCA) and incubating for 60 minutes at 4° C. Plates are washed with deionized water and dried. One hundred μl of SRB solution (0.4% wt/vol in 1% acetic acid) is added to each microtiter well and incubated for 10 minutes at room temperature. Unbound SRB is removed by washing with 1% acetic acid. Plates are air dried and bound stain is solubilized with Tris buffer. Optical densities are read on a automated spectrophotometric plate reader at a single wavelength of 490 nm.
The values for mean +/−SD of data from triplicate wells are calculated. Some parameters for cellular responses can be calculated: GI=growth inhibition, TGI=total growth inhibition (cytostatic effect) and LC=cell killing (cytotoxic effect).

[9] = test system: IGROV-1; test: Inhibition of cells growth by colorimetric (SRB) assay, IGROV-1; conditions: for GI50 / CC50: Homo sapiens, IGROV-1, 48 h; for GI50: read-out: GI50 IGROV, SRB assay, 48 hours exposure; for CC50: read-out: LC50 IGROV, SRB assay, 48 hours exposure; for TGI IGROV: SRB assay, 48 hours exposure
In short: as §1

[10] = test system: DU-145; test: Inhibition of cells growth by colorimetric (SRB) assay, DU-145; conditions: for GI50 / CC50: Homo sapiens, DU-145, 48 h; for GI50: read-out: GI50 DU-145, SRB assay, 48 hours exposure; for CC50: read-out: LC50 DU-145, SRB assay, 48 hours exposure; for TGI DU-145: SRB assay, 48 hours exposure
In short: as §1

[11] = test system: LNCaP; test: Inhibition of cells growth by colorimetric (SRB) assay, LNCaP; conditions: for GI50 / CC50: Homo sapiens, LNCaP, 48 h; for GI50: read-out: GI50 LN-caP, SRB assay, 48 hours exposure; for CC50: read-out: LC50 LN-caP, SRB assay, 48 hours exposure; for TGI LN-caP: SRB assay, 48 hours exposure
In short: as §1

[12] = test system: PANC-1; test: Inhibition of cells growth by colorimetric (SRB) assay, PANC-1; conditions: for GI50 / CC50: Homo sapiens, PANC-1, 48 h; for GI50: read-out: GI50 PANC-1, SRB assay, 48 hours exposure; for CC50: read-out: LC50 PANC-1, SRB assay, 48 hours exposure; for TGI PANC-1: SRB assay, 48 hours exposure
In short: as §1

[13] = test system: IGROV-ET; test: Inhibition of cells growth by colorimetric (SRB) assay, IGROV-ET; conditions: for GI50 / CC50: Homo sapiens, 48 h; for GI50: read-out: GI50 IGROV-ET, SRB assay, 48 hours exposure; for CC50: read-out: LC50 IGROV-ET, SRB assay, 48 hours exposure; for TGI IGROV-ET: SRB assay, 48 hours exposure
In short: as §1

Row | SMILES | GI50 [1] | CC50 [1] | TGI LOVO-DOX [1] | GI50 [2] | CC50 [2] | TGI MEL-28 [2] | GI50 [3] | CC50 [3] | TGI HT-29 [3] | GI50 [4] | CC50 [4] | TGI A-549 [4] | GI50 [5] | CC50 [5] | TGI K-562 [5] | GI50 [6] | CC50 [6] | TGI SKOV-3 [6] | GI50 [7] | CC50 [7] | further results
1 | COc1ccc2nc3c(cc2c1)c(-c1ccnc(N)n1)c1ccnc(N)n13 [Compound 19b] | 7.42 µM | 28 µM | 2.10E−05 | 4.92 µM | 28 µM | 1.65E−05 | 15.2 µM | 28 µM | 2.80E−05 | 0.453 µM | 28 µM | 2.80E−05 | 8.48 µM | 28 µM | 1.59E−05 | 8.28 µM | 28 µM | 1.89E−05 | 3.25 µM | 28 µM | TGI LOVO [7]: 1.97E−05; GI50 [8]: 1.89 µM; CC50 [8]: 28 µM; TGI SK-BR-3 [8]: 8.23E−06; GI50 [9]: 4.11 µM; CC50 [9]: 19.4 µM; TGI IGROV [9]: 8.93E−06; GI50 [10]: 5.79 µM; CC50 [10]: 28 µM; TGI DU-145 [10]: 2.39E−05; GI50 [11]: 2.36 µM; CC50 [11]: 27.6 µM; TGI LN-caP [11]: 8.59E−06; GI50 [12]: 8.87 µM; CC50 [12]: 28 µM; TGI PANC-1 [12]: 2.80E−05; GI50 [13]: 3.27 µM; CC50 [13]: 20.4 µM; TGI IGROV-ET [13]: 8.17E−06
2 | CSc1nccc(-c2c3cccnc3n3ccccc23)n1 [Compound 55] | 3.93 µM | 26.4 µM | 1.02E−05 | 11.6 µM | ≥ 34.2 µM | 3.20E−05 | 13.2 µM | ≥ 34.2 µM | 3.42E−05 | 7.29 µM | ≥ 34.2 µM | 1.90E−05 | 9.71 µM | ≥ 34.2 µM | 1.83E−05 | 7.73 µM | ≥ 34.2 µM | 2.09E−05 | 9.92 µM | ≥ 34.2 µM | TGI LOVO [7]: 3.42E−05; GI50 [8]: 8.82 µM; CC50 [8]: ≥ 34.2 µM; TGI SK-BR-3 [8]: 2.32E−05; GI50 [9]: 7.42 µM; CC50 [9]: ≥ 34.2 µM; TGI IGROV [9]: 1.53E−05; GI50 [10]: 11.4 µM; CC50 [10]: ≥ 34.2 µM; TGI DU-145 [10]: 3.38E−05; GI50 [11]: 6.84 µM; CC50 [11]: ≥ 34.2 µM; TGI LN-caP [11]: 1.55E−05; GI50 [12]: 8.79 µM; CC50 [12]: ≥ 34.2 µM; TGI PANC-1 [12]: 2.91E−05; GI50 [13]: 8.79 µM; CC50 [13]: ≥ 34.2 µM; TGI IGROV-ET [13]: 2.00E−05
